{"source": "patent US7115380B2", "about": "“Applications of peptides derived from the cytoplasmic domain of amyloid precursor protein (APP)” (Centre National de la Recherche Scientifique, priority 1999, dated 2006)", "key": {"[1]": {"test_system": "neurons (primary culture)", "assay": "Quantification of DNA cleavage by TUNEL 24 h after internalization of the peptides (FIG. 2)", "type": "cell-based, mouse or rat", "details": "for DNA cleavage (percentage of TUNEL-positive cells): triplicate, p<0.0001", "description": "(§1) Cortical and corticostriatal neurons are prepared, as described previously (Lafont et al., Development, 1992, 114, 17–29, ), from E14, mouse embryos or from E15, rat embryos.\n(§2) Briefly, the dissociated cells are plated out onto polyornithine-coated plastic plates (ELISA-type plates) at a density of 5,000, cells per well, and incubated in a suitable medium supplemented with hormones, proteins and salts.\n(§3) All the peptides are added to the cells two hours after the latter have been plated out. The internalization is verified by confocal microscopy after immunolabeling (Pmyc) or detection of biotin (Jcasp and its variants).\n(§4) The internalization and the intracellular stability of Jcasp, Pmyc and J(Y→D)Casp are identical. The irreversible caspase inhibitors zVAD-fmk (100 μM) and zDEVD-fmk (200 μM) (Calbiochem, France) are added 1 hour before addition of the peptide.\n(§5) The apoptotic cells are detected by TUNEL labeling (fluorescein or alkaline phosphatase kits) as described by the supplier (Roche Diagnostics, France).\n(§6) For each condition, 600 to 800 cells are counted three times.\n(§7) The statistical analysis is carried out with ANOVA and the Scheffé test.\nPeptide G was internalized at 2 concentrations (1X and 2X) and peptide Gcasp (or Jcasp) was internalized at the 1X concentration, in the presence or absence of the caspase inhibitor zVAD.\nEach condition was tested in triplicate. The percentage of positive cells was evaluated after 24 h by counting approximately 1000 cells per well."}, "[2]": {"test_system": "actin cleavage by caspase 3 in neurons", "assay": "Quantification of actin cleavage by caspase 3 using anti-fractin antibody (FIGS. 4 and 5)", "type": "cell-based, mouse or rat", "details": "for actin cleavage (percentage of fractin-positive neurons): 24 h, triplicate", "description": "(§8) For the immunodetection of the fractin or of the p20 subunit of caspase 3 (Pharmingen), the cells are fixed with 4% paraformaldehyde (30 minutes, room temperature), washed three times with PBS and saturated for 1 hour at 37° C. with 10% fetal calf serum (FCS) in PBS containing 0.2% of Triton X 100.\n(§9) Purified primary antibodies directed against fractin or p20 are diluted (in PBS-FCS) 2000-fold and 500-fold, respectively, incubated overnight at 4° C. washed three times and incubated with biotinylated anti-rabbit antibodies.\n(§10) The detection is carried out using the alkaline phosphatase amplification kit (Vector, France).\nas §6, §7\nFIGS. 4 and 5 illustrate the quantification of the actin cleavage by caspase 3 using the anti-fractin antibody, by immunocytochemistry after fixing the cells with paraformaldehyde (F. Yang et al., Am. J. Pathol., 1998, 152, 2, 379–389). The anti-fractin antibody specifically recognizes actin cleaved by caspase 3. The percentage of fractin-positive neurons was determined after 24 h of internalization of the peptides, by counting approximately 1000 cells per well in triplicate."}, "[3]": {"test_system": "cortical and corticostriatal neurons", "assay": "Internalization of peptides into primary cultures of neurons: toxicity, neurite growth, neuronal death", "type": "cell-based, mouse or rat", "description": "as §1, §2\nThe internalization conditions are the same as those described in International Application WO 97/12912.\nas §3"}, "[4]": {"test_system": "E15 rat cortical neurones", "assay": "Cell death by TUNEL in E15 rat cortical neurones (FIG. 3)", "type": "cell-based", "description": "as §1, §2, §3, §4, §5, §6, §7\nPeptide Jcasp induces neuronal apoptosis. Two hours after plating out onto plates, peptide Jcasp is added to the E15 rat cortical neurones and cell death is evaluated by the TUNEL effect, 24 hours later."}, "[5]": {"test_system": "p20 subunit of caspase 3 in mouse cortical embryonic neurons", "assay": "Immunoreactivity for the p20 subunit of caspase 3 (FIGS. 6 and 7)", "type": "cell-based", "details": "inhibitor with peptide Jcasp", "description": "as §8, §9, §10, §6, §7\nIn order to verify that caspase 3 is effectively involved in the apoptosis caused by peptide Jcasp, use is made of the fact that this enzyme (caspase 3) is synthesized in the form of a propetide (37 kDa) which, after stimulation, generates an active subunit of 17–22 kDa (p20).\nImmunoreactivity for p20 is examined in mouse cortical embryonic neurons cultured for 24 hours in the presence of several peptides. FIG. 6 illustrates the immunoreactivity for the p20 protein and FIG. 7 quantifies the induction of the p20."}}, "note": "Where a SMILES comes first, the peptide text is derived from it. The star is where a group is joined. Cbz = O=C(OCc1ccccc1)*; CH2F = FC*", "data": [{"molecule": "COC(=O)C[C@H](NC(=O)[C@H](C)NC(=O)[C@@H](NC(=O)OCc1ccccc1)C(C)C)C(=O)CF", "note": "[zVAD-fmk] (Cbz-Val-Ala-Asp(OMe)-CH2F)", "values": [{"measurement": "effect of caspase inhibitor on peptide-induced increase in DNA cleavage (TUNEL)", "setting": "[1]; with peptide G or Jcasp", "value": "inhibits this increase in cleavage"}, {"measurement": "effect on endogenous cleavage of actin by caspases of neurones", "setting": "[2]; inhibitor alone", "value": "inhibits all endogenous cleavage"}, {"measurement": "effect on the peptide-induced increase in actin cleavage", "setting": "[2]; with G1X, G2X and Gcasp1X, p<0.0001, inhibition not complete", "value": "significantly inhibits the increase"}]}, {"molecule": "peptide G: KQYTSIHHG, APP positions 651–659 (SEQ ID NO: 2, Y0 null), tested with Y1 = penetratin SEQ ID NO: 5 (KQIKIWFQNRRMKWKKKQYTSIHHG; listed as Homo sapiens)", "values": [{"measurement": "DNA cleavage (percentage of TUNEL-positive cells)", "setting": "[1]; concentration 1X", "value": "significant increase"}, {"measurement": "DNA cleavage (percentage of TUNEL-positive cells)", "setting": "[1]; concentration 2X", "value": "significant increase"}, {"measurement": "effect on neurite growth after internalization", "setting": "[3]; concentrations lower than one μM", "value": "reproduces the effects of the intact C-terminal domain"}, {"measurement": "pro-apoptotic nature after internalization", "setting": "[3]; internalized into neurons", "value": "pro-apoptotic"}, {"measurement": "actin cleavage (percentage of fractin-positive neurons)", "setting": "[2]; 1X", "value": "significant increase"}, {"measurement": "actin cleavage (percentage of fractin-positive neurons)", "setting": "[2]; 2X, p<0.0001", "value": "significant increase"}]}, {"molecule": "peptide H: SEQ ID NO: 5 + domain H (NGYENPTYK, SEQ ID NO: 7), APP positions 680–688 (KQIKIWFQNRRMKWKKNGYENPTYK; listed as Homo sapiens)", "values": [{"measurement": "effect on neurite growth after internalization", "setting": "[3]; internalization into neurons", "value": "no effect"}]}, {"molecule": "COC(=O)CC[C@H](NC(=O)[C@H](CC(=O)OC)NC(=O)OCc1ccccc1)C(=O)N[C@H](C(=O)N[C@@H](CC(=O)OC)C(=O)CF)C(C)C", "note": "[zDEVD-fmk]", "values": [{"measurement": "effect on basal cell death (TUNEL)", "setting": "[4]; inhibitor at 200 μM, added 1 hour before peptide", "value": "weak effect"}, {"measurement": "inhibition of DNA fragmentation induced by peptide Jcasp", "setting": "[4]; inhibitor at 200 μM, Jcasp at 1.2 μM and 2.4 μM", "value": "inhibits the DNA fragmentation"}, {"measurement": "effect on activation of p20 by peptide Jcasp", "setting": "[5]", "value": "significantly decreases the activation of p20"}, {"measurement": "effect on actin cleavage induced by peptide Jcasp (FIG. 5)", "setting": "[2]; inhibitor with peptide Jcasp", "value": "inhibits the actin cleavage"}]}, {"molecule": "peptide E: SEQ ID NO: 5 + domain E (VDAAVTPEE, SEQ ID NO: 6), APP positions 663–671 (KQIKIWFQNRRMKWKKVDAAVTPEE; listed as Homo sapiens)", "values": [{"measurement": "effect on neurite growth after internalization", "setting": "[3]; internalization into neurons", "value": "no effect"}]}, {"molecule": "Pmyc: SEQ ID NO: 5 + peptide corresponding to the MYC sequence [EQKLISEED]; no relation to APP (KQIKIWFQNRRMKWKKEQKLISEED; listed as Homo sapiens)", "values": [{"measurement": "DNA fragmentation / number of TUNEL-positive cells", "setting": "[4]; 24 hours, concentration not given", "value": "no effect"}]}]}
